From PMC4807864 (The Journal of antibiotics, 2013)
Structures can show the parent of a compound that is named as a salt.

target: T1, human PPTase (hPPTase) (Homo sapiens, UniProt Q9NRN7); test: Fluorescence polarization phosphopantetheinylation assay; format: biochemical; conditions: not given
T1 sequence (Q9NRN7 1-309): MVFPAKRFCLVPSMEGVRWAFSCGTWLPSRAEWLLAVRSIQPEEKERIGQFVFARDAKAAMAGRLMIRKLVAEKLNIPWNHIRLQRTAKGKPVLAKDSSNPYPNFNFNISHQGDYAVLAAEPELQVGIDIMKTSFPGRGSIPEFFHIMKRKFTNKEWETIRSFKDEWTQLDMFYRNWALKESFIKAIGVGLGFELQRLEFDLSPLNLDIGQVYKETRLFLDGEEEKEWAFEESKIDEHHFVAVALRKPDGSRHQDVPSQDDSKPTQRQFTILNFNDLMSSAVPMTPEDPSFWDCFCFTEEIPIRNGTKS

**Q.** NC(CO)C(=O)NNCc1ccc(O)c(O)c1O (stereo not drawn) [benserazide HCl, benserazide] was tested. Which IC50 did it give?
**A.** Its IC50 is greater than 100 µM.

**Q.** For CC(C)(COP(=O)(O)OP(=O)(O)OC[C@H]1O[C@@H](n2cnc3c(N)ncnc32)[C@H](O)[C@@H]1OP(=O)(O)O)[C@@H](O)C(=O)NCCC(=O)NCCS [coenzyme A], which IC50 is on record?
**A.** The IC50 was 14 ± 1 µM.

**Q.** How did the IC50 turn out when C[n+]1cc2c3c(ccc2c2ccc4cc5c(cc4c21)OCO5)OCO3 [sanguinarine Cl, sanguinarine] was run?
**A.** The IC50 was greater than 100 µM.

target: Sfp (Bacillus subtilis, UniProt P39135); test: SDS-PAGE fluorescent carrier protein labeling follow-up; format: biochemical, B. subtilis; conditions: gel analysis (Figure S22)
Sequence (P39135 whole entry): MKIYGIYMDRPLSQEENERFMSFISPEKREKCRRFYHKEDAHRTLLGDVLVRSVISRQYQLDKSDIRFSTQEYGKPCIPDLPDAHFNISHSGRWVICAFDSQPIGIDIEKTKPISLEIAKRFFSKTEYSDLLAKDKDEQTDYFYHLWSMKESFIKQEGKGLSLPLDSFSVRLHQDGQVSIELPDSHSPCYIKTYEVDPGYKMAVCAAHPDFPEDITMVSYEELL

**Q.** With NC(N)=Nc1ccc2[nH]c3c(c2c1)C[C@@]1(O)[C@H]2Cc4ccc(O)c5c4[C@@]1(CCN2CC1CC1)[C@H]3O5.O=C(O)C(F)(F)F.O=C(O)C(F)(F)F [guanidinyl-naltrindole] as the compound, how does the “Effect on fluorescent labeling of the carrier protein substrate by SDS-PAGE” value (“Effect on fluorescent labeling” below) read?
**A.** Its value is “increase fluorescent labeling”.

**Q.** C[n+]1cc2c3c(ccc2c2ccc4cc5c(cc4c21)OCO5)OCO3 [sanguinarine Cl, sanguinarine] was tested. Which “Effect on fluorescent labeling” value did it give?
**A.** The value was “inhibitory behavior”.

**Q.** How did the “Effect on fluorescent labeling” value turn out when CC(C)(C)c1ccc(S(=O)(=O)/C=C/C#N)cc1 [Bay 11-7085] was run?
**A.** Its value is “increase fluorescent labeling”.
